Experimental findings from patent US11780830B2, “Triazolone derivatives or salts thereof and pharmaceutical compositions comprising the same” (YUHAN CORPORATION, priority 2018, dated 2023) are described below.

The structures appear in SMILES notation. Counter-ions that a name gives are not always drawn.

Assay type in all cases: biochemical
For assay [1], the target named is T1, recombinant human MAO-B (monoamine oxidase-B) (Homo sapiens, UniProt P27338).
T1 construct: purchased Sigma-Aldrich
T1 sequence (P27338 1-520): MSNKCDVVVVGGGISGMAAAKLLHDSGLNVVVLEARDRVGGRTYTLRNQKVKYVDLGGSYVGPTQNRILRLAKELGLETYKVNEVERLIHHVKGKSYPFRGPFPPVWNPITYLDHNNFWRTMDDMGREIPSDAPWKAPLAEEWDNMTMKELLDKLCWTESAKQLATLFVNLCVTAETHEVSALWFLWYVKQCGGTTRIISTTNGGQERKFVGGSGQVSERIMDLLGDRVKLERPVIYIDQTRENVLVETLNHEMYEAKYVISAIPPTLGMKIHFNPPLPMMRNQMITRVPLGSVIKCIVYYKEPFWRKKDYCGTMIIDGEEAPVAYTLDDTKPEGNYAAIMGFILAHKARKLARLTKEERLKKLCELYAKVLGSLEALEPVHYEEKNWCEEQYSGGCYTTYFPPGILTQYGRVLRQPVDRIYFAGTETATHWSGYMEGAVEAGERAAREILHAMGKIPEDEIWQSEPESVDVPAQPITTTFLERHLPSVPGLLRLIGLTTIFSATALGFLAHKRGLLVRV
The assay is described as follows: Activity on recombinant human MAO-B, method similar to the VAP-1 assay. Conditions: substrate 1 mM benzylamine; read-out: Inhibitory Activity (IC50, nM) MAO-B. The procedure, abridged: (§1)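 Enzyme preincubated with compound 30 min at 37 °C in 50 mM sodium phosphate pH 7.4, final DMSO below 1%. Substrate was 0.5 mM tyramine for MAO-A and 1 mM benzylamine for MAO-B, with 200 uM Amplex Red and 1 U/mL HRP. H2O2-coupled resorufin fluorescence (ex 544/em 590) followed over 1–2 h; 8-point 4-parameter IC50.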

Assay [2] addresses T2, recombinant human DAO (diamine oxidase) (Homo sapiens, UniProt P19801).
T2 construct: purchased R&D systems
T2 sequence (P19801 20-751): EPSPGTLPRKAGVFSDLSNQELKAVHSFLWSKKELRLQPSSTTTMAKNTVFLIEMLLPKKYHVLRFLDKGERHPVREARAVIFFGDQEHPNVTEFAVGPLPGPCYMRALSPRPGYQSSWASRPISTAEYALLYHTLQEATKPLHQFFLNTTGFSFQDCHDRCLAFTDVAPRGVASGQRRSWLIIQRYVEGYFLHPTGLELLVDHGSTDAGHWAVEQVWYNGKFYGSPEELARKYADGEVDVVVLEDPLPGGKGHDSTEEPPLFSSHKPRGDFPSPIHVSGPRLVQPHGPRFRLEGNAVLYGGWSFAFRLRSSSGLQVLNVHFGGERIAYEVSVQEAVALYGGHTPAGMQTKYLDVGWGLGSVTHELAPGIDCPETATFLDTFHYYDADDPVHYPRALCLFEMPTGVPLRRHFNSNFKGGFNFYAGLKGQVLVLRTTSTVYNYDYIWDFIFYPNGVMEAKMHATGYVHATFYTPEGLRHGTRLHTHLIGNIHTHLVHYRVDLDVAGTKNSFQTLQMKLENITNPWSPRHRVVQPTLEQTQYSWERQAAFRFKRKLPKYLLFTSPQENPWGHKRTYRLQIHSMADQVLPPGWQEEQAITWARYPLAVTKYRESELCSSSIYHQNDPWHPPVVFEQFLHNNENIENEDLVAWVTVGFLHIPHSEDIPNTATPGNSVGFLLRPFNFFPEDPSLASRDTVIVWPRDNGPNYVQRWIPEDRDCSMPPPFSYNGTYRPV
The assay is described as follows: Activity on recombinant human DAO, method similar to the VAP-1 assay. Particulars: substrate 1 mM putrescine; read-out: Inhibitory Activity (IC50, nM) DAO. The procedure, abridged: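 Inhibition of recombinant human diamine oxidase (DAO, R&D systems) was assessed by the same approach as the VAP-1 assay, using 1 mM putrescine as substrate. Hydrogen peroxide formed was detected through an HRP-coupled Amplex Red reaction yielding fluorescent resorufin, read at 544 nm excitation and 590 nm emission. IC50 values came from four-parameter logistic fitting in GraphPad Prism.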

The target in the next assay is T3, recombinant human VAP-1 (Homo sapiens, UniProt Q16853).
T3 construct: purchased R&D systems
T3 sequence (Q16853 1-763): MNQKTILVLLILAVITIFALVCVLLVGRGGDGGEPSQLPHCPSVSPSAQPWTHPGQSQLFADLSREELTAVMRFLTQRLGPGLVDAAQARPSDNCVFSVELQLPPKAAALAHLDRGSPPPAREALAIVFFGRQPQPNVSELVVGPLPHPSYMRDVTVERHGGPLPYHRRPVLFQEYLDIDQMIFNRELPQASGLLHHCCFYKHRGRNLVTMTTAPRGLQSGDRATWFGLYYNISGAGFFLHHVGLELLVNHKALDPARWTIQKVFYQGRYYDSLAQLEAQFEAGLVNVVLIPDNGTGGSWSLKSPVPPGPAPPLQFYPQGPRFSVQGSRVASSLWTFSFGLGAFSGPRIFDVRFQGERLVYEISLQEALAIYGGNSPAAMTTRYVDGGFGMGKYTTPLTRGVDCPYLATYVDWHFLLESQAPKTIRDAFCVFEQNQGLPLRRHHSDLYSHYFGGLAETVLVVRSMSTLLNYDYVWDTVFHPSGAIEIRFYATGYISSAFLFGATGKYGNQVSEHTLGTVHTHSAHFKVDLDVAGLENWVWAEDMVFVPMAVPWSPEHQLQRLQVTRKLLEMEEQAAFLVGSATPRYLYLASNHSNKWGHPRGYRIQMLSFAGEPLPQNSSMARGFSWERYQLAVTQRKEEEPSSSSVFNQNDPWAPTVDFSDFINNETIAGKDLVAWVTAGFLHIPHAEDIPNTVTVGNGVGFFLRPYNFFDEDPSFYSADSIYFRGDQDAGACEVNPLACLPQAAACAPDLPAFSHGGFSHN
The assay is described as follows: Activity on recombinant human VAP-1, HRP-coupled Amplex Red hydrogen peroxide assay. Conditions: substrate 1 mM benzylamine; compound incubated with enzyme at 37° C. for 30 minutes; pH 7.4; read-out: Inhibitory Activity (IC50, nM) human VAP-1. The procedure, abridged:
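Enzyme in 50 mM sodium phosphate pH 7.4 preincubated with compound 30 min at 37 °C, then 1 mM benzylamine, 200 µM Amplex Red and 1 U/mL HRP added. H2O2-derived resorufin fluorescence (ex 544/em 590 nm) followed over 1–2 h; signal-rate decrease versus DMSO control, 8-point curve, four-parameter logistic IC50.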

Assay [3] concerns the target T4, recombinant human MAO-A (monoamine oxidase-A) (Homo sapiens, UniProt P21397).
T4 construct: purchased Sigma-Aldrich
T4 sequence (P21397 1-527): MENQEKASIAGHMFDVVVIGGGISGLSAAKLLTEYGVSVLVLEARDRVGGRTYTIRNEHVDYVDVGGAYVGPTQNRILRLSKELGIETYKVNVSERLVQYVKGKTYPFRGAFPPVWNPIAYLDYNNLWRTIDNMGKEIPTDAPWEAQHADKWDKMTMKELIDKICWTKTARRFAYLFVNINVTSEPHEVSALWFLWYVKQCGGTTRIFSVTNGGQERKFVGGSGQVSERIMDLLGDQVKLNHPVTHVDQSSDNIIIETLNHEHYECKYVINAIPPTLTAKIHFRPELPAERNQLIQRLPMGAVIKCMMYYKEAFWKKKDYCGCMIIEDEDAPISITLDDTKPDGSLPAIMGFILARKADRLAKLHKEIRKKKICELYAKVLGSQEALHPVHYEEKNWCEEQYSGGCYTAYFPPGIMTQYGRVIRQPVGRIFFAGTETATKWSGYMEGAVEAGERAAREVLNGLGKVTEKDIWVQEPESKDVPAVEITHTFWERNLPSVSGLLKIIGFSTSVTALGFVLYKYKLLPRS
The assay is described as follows: Activity on recombinant human MAO-A, method similar to the VAP-1 assay. Particulars: substrate 0.5 mM tyramine; read-out: Inhibitory Activity (IC50, nM) MAO-A. In a few lines: as §1

The IC50 is the concentration that inhibits the measured activity by half. With `NC/C(=C\F)Cn1ncn(Cc2ccc(-c3ccc4c(c3)CNC4=O)s2)c1=O` [Example 68, 5-[5-(1-[(2E)-2-(aminomethyl)-3-fluoroprop-2-en-1-yl]-5-oxo-1,5-dihydro-4H-1,2,4-triazol-4-ylmethyl)thiophen-2-yl]-2,3-dihydro-1H-isoindol-1-one hydrochloride], the IC50 in assay [1] was 1600 nM; in assay [2], 1000 nM; on recombinant human VAP-1, 0.4 nM; in assay [3], > 100000 nM.
For `CC(C)n1cc(-c2ccc(Cn3cnn(C/C(=C/F)CN)c3=O)s2)ccc1=O` [Example 143, 5-[5-({1-[(2E)-2-(aminomethyl)-3-fluoroprop-2-en-1-yl]-5-oxo-1,5-dihydro-4H-1,2,4-triazol-4-yl}methyl)thiophen-2-yl]-1-(propan-2-yl)pyridin-2(1H)-one], in that order: 2600 nM, 1700 nM, 1.4 nM and > 100000 nM.
The matching figures for `CNc1ncc2cc(-c3ccc(Cn4cnn(C/C(=C/F)CN)c4=O)s3)ccc2n1` [Example 112, 2-[(2E)-2-(aminomethyl)-3-fluoroprop-2-en-1-yl]-4-(5-[2-(methylamino)quinazolin-6-yl]thiophen-2-ylmethyl)-2,4-dihydro-3H-1,2,4-triazol-3-one hydrochloride]: 950 nM, 310 nM, 0.9 nM and > 100000 nM.
Regarding `NC/C(=C\F)Cn1ncn(Cc2ccc(-c3cnc4c(c3)CCC(=O)N4)s2)c1=O` [Example 148, 6-[5-({1-[(2E)-2-(aminomethyl)-3-fluoroprop-2-en-1-yl]-5-oxo-1,5-dihydro-4H-1,2,4-triazol-4-yl}methyl)thiophen-2-yl]-3,4-dihydro-1,8-naphthyridin-2(1H)-one], the IC50 in assay [1] is 24000 nM; in assay [2], 420 nM; on recombinant human VAP-1 it was 0.4 nM; in assay [3] it was > 100000 nM.
The matching figures for `COc1ccc(-c2ccc(Cn3cnn(C/C(=C/F)CN)c3=O)s2)cc1OC` [Example 16, 2-[(2E)-2-(aminomethyl)-3-fluoroprop-2-en-1-yl]-4-[5-(3,4-dimethoxyphenyl)thiophen-2-yl]methyl-2,4-dihydro-3H-1,2,4-triazol-3-one hydrochloride]: 300 nM, 2800 nM, 1.2 nM and > 100000 nM.
Take `NC/C(=C\F)Cn1ncn(Cc2ccc(-c3ccc(C(F)(F)F)nc3)s2)c1=O` [Example 49, 2-[(2E)-2-(aminomethyl)-3-fluoroprop-2-en-1-yl]-4-(5-[6-(trifluoromethyl)pyridin-3-yl]thiophen-2-ylmethyl)-2,4-dihydro-3H-1,2,4-triazol-3-one hydrochloride]: the IC50 was 360 nM in assay [1], 98 nM in assay [2], 0.5 nM on recombinant human VAP-1 and > 100000 nM in assay [3].
The matching figures for `CN1C(=O)COc2cc(-c3ccc(Cn4cnn(C/C(=C/F)CN)c4=O)s3)ccc21` [Example 86, 7-[5-[[1-[(E)-2-(aminomethyl)-3-fluoro-allyl]-5-oxo-1,2,4-triazol-4-yl]methyl]-2-thienyl]-4-methyl-1,4-benzoxazin-3-one hydrochloride]: 2500 nM, 380 nM, 0.2 nM and > 100000 nM.
For `NC/C(=C\F)Cn1ncn(Cc2ccc(-c3ccc(CO)cc3)s2)c1=O` [Example 169, 2-[(2E)-2-(aminomethyl)-3-fluoroprop-2-en-1-yl]-4-({5-[4-(hydroxymethyl)phenyl]thiophen-2-yl}methyl)-2,4-dihydro-3H-1,2,4-triazol-3-one], in that order: 930 nM, 12000 nM, 3.3 nM and > 100000 nM.
Take `CSc1ncc(-c2ccc(Cn3cnn(C/C(=C/F)CN)c3=O)s2)cn1` [Example 56, 2-[(2E)-2-(aminomethyl)-3-fluoroprop-2-en-1-yl]-4-(5-[2-(methylsulfanyl)pyrimidin-5-yl]thiophen-2-ylmethyl)-2,4-dihydro-3H-1,2,4-triazol-3-one hydrochloride]: the IC50 is 4200 nM in assay [1], 40 nM in assay [2], 0.4 nM on recombinant human VAP-1 and > 100000 nM in assay [3].
For `CS(=O)(=O)c1ccc(-c2csc(Cn3cnn(C/C(=C/F)CN)c3=O)c2)cc1` [Example 201], in that order: 3000 nM, 450 nM, 1.5 nM and > 100000 nM.
Take `COc1cc(COc2c(C)cc(-c3ccc(Cn4cnn(C/C(=C/F)CN)c4=O)s3)cc2C)cc(OC)c1` [Example 18, 2-[(2E)-2-(aminomethyl)-3-fluoroprop-2-en-1-yl]-4-[(5-4-[(3,5-dimethoxybenzyl)oxy]-3,5-dimethylphenylthiophen-2-yl)methyl]-2,4-dihydro-3H-1,2,4-triazol-3-one hydrochloride]: the IC50 stood at 220 nM in assay [1], 350 nM in assay [2], 2.1 nM on recombinant human VAP-1 and 13000 nM in assay [3].
